Data reported in patent US11840528B2 (Hoffmann-La Roche Inc., priority 2018, dated 2023).

Assays:
h-GABA-A α5β3γ2 [1] = target: T1, h-GABA-A α5β3γ2 (Homo sapiens, UniProt P18507+P31644); assay: Two-electrode voltage clamp electrophysiology in Xenopus laevis oocytes expressing GABAA receptors, modulation of GABA EC20 current; assay type: cell-based; design: host or cells: Xenopus laevis oocytes micro-injected with RNA transcripts of the subunits; details: Table 1; for Efficacy (GABA) %: % modulation of GABA EC20 = 100*(Fold increase-1); for Fold increase h-GABA-A α5β3γ2 oocyte: test compound at approx. 30 fold its Ki, GABA at EC20
Method in brief: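 Modulation is reported as % of the GABA EC20 current, calculated as 100*(Fold increase−1) from the peak ratio between a second GABA response carrying compound (applied at roughly 30-fold Ki) and a preceding control response. Oocytes expressing human α5β3γ2 were clamped at −80 mV at room temperature, 3–5 days after injection.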

h-GABA-A α5β3γ2 [2] = target: T1, h-GABA-A α5β3γ2; assay: [3H]flumazenil competition binding assay, membranes of HEK293 cells expressing GABAA receptors; details: displacement of [3H]-Flumazenil 0.5 nM, HEK293 cells expressing human receptors, mean of two determinations; Table 1
Method in brief: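 Receptor source: human α5β3γ2 transiently transfected into HEK293 cells, membranes in pH 7.5 Krebs-tris. Filtration through GF/C, then scintillation counting.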

Row | SMILES | Efficacy (GABA) % (h-GABA-A α5β3γ2 [1]) | Fold increase h-GABA-A α5β3γ2 oocyte (h-GABA-A α5β3γ2 [1]) | Ki (h-GABA-A α5β3γ2 [2])
1 | Cc1ccc(-c2noc(C)c2Cn2ncc(N3CC(Oc4ccc(Cl)cn4)C3)cc2=O)cn1 [Example 130, 5-[3-[(5-chloro-2-pyridyl)oxy]azetidin-1-yl]-2-[[5-methyl-3-(6-methyl-3-pyridyl)isoxazol-4-yl]methyl]pyridazin-3-one] | 187% | 2.87 | 25.1 nM
2 | Cc1ccc(-c2noc(C)c2Cn2ncc(N3CC4(C[C@@H](O)CO4)C3)cc2=O)cn1 [Example 132, 5-[(7R)-7-hydroxy-5-oxa-2-azaspiro[3.4]octan-2-yl]-2-[[5-methyl-3-(6-methyl-3-pyridyl)isoxazol-4-yl]methyl]pyridazin-3-one] | 119% | 2.19 | 19.5 nM
3 | CO[C@@H]1COC2(C1)CN(c1cnn(Cc3c(-c4ccc(C)nc4)noc3C)c(=O)c1)C2 [Example 133, 5-[(7S)-7-methoxy-5-oxa-2-azaspiro[3.4]octan-2-yl]-2-[[5-methyl-3-(6-methyl-3-pyridyl)isoxazol-4-yl]methyl]pyridazin-3-one] | 172% | 2.72 | 81.2 nM
4 | CO[C@H]1COC2(C1)CN(c1cnn(Cc3c(-c4ccc(C)nc4)noc3C)c(=O)c1)C2 [Example 134, 5-[(7R)-7-methoxy-5-oxa-2-azaspiro[3.4]octan-2-yl]-2-[[5-methyl-3-(6-methyl-3-pyridyl)isoxazol-4-yl]methyl]pyridazin-3-one] | 111% | 2.11 | 16.6 nM
5 | Cc1ccc(-c2noc(C)c2Cn2ncc(N3CC(Oc4ccc(Cl)nc4)C3)cc2=O)cn1 [Example 138, 5-[3-[(6-chloro-3-pyridyl)oxy]azetidin-1-yl]-2-[[5-methyl-3-(6-methyl-3-pyridyl)isoxazol-4-yl]methyl]pyridazin-3-one] | 105% | 2.05 | 9.2 nM
6 | Cc1cc(-c2noc(C)c2Cn2ncc(N3CC(OCC4CC4)C3)cc2=O)no1 [Example 141, 5-[3-(cyclopropylmethoxy)azetidin-1-yl]-2-[[5-methyl-3-(5-methylisoxazol-3-yl)isoxazol-4-yl]methyl]pyridazin-3-one] | 107% | 2.07 | 16 nM
7 | Cc1cc(-c2noc(C)c2Cn2ncc(N3CC4(CCCO4)C3)cc2=O)no1 [Example 142, 2-[[5-methyl-3-(5-methylisoxazol-3-yl)isoxazol-4-yl]methyl]-5-(5-oxa-2-azaspiro[3.4]octan-2-yl)pyridazin-3-one] | 48% | 1.48 | 15.4 nM
8 | Cc1onc(-c2ccc(Cl)cn2)c1Cn1ncc(N2CC3(CCCO3)C2)cc1=O [Example 144, 2-((3-(5-Chloropyridin-2-yl)-5-methylisoxazol-4-yl)methyl)-5-(5-oxa-2-azaspiro[3.4]octan-2-yl)pyridazin-3(2H)-one] | 20% | 1.2 | 3.2 nM
9 | COc1cccc(-c2cnn(Cc3c(-c4ccc(C)nc4)noc3C)c(=O)c2)n1 [Example 145, 5-(6-methoxy-2-pyridyl)-2-((5-methyl-3-(6-methyl-3-pyridyl)isoxazol-4-yl)methyl)pyridazin-3-one] | 119% | 2.19 | 26.2 nM

More lines, in order of falling Ki (h-GABA-A α5β3γ2 [2]), values ahead:

Row | Efficacy (GABA) % (h-GABA-A α5β3γ2 [1]) | Fold increase h-GABA-A α5β3γ2 oocyte (h-GABA-A α5β3γ2 [1]) | Ki (h-GABA-A α5β3γ2 [2]) | SMILES
10 | 119% | 2.19 | 28.1 nM | CCO[C@H]1COC2(C1)CN(c1cnn(Cc3c(-c4ccc(C)nc4)noc3C)c(=O)c1)C2 [Example 135, 5-[(7R)-7-ethoxy-5-oxa-2-azaspiro[3.4]octan-2-yl]-2-[[5-methyl-3-(6-methyl-3-pyridyl)isoxazol-4-yl]methyl]pyridazin-3-one]
11 | 110% | 2.1 | 22.9 nM | Cc1ccc(-c2noc(C)c2Cn2ncc(N(C)C3CN(C4CC4)C3)cc2=O)cn1 [Example 137, 5-((1-cyclopropylazetidin-3-yl)(methyl)amino)-2-((5-methyl-3-(6-methylpyridin-3-yl)isoxazol-4-yl)methyl)pyridazin-3(2H)-one]
12 | 132% | 2.32 | 19.3 nM | COC1CCN(c2cnn(Cc3c(-c4ccc(C)nc4)noc3C)c(=O)c2)CC1 [Example 139, 5-(4-methoxy-1-piperidyl)-2-[[5-methyl-3-(6-methyl-3-pyridyl)isoxazol-4-yl]methyl]pyridazin-3-one]
13 | 105% | 2.05 | 17 nM | Cc1ccc(-c2noc(C)c2Cn2ncc(N3CC4(C[C@H](O)CO4)C3)cc2=O)cn1 [Example 131, 5-[(7S)-7-hydroxy-5-oxa-2-azaspiro[3.4]octan-2-yl]-2-[[5-methyl-3-(6-methyl-3-pyridyl)isoxazol-4-yl]methyl]pyridazin-3-one]
14 | 170% | 2.7 | 12 nM | Cc1ccc(-c2noc(C)c2Cn2ncc(N3CC(Oc4ccnc(Cl)c4)C3)cc2=O)cn1 [Example 147, 5-[3-[(2-chloro-4-pyridyl)oxy]azetidin-1-yl]-2-[[5-methyl-3-(6-methyl-3-pyridyl)isoxazol-4-yl]methyl]pyridazin-3-one]
15 | 120% | 2.2 | 11.1 nM | Cc1ccc(-c2noc(C)c2Cn2ncc(N3CC(Oc4ccccc4F)C3)cc2=O)cn1 [Example 128, 5-[3-(2-fluorophenoxy)azetidin-1-yl]-2-[[5-methyl-3-(6-methyl-3-pyridyl)isoxazol-4-yl]methyl]pyridazin-3-one]
16 | 62% | 1.62 | 8.5 nM | COC1CN(c2cnn(Cc3c(-c4cc(C)on4)noc3C)c(=O)c2)C1 [Example 140, 5-(3-methoxyazetidin-1-yl)-2-[[5-methyl-3-(5-methylisoxazol-3-yl)isoxazol-4-yl]methyl]pyridazin-3-one]
17 | 248% | 3.48 | 8.4 nM | Cc1ccc(-c2noc(C)c2Cn2ncc(-c3cncc(Cl)c3)cc2=O)cn1 [Example 148, 5-(5-chloro-3-pyridyl)-2-((5-methyl-3-(6-methyl-3-pyridyl)isoxazol-4-yl)methyl)pyridazin-3-one]
18 | 96% | 1.96 | 5.2 nM | Cc1ccc(-c2noc(C)c2Cn2ncc(N3CC(OC4CC4)C3)cc2=O)cn1 [Example 136, 5-[3-(cyclopropoxy)azetidin-1-yl]-2-[[5-methyl-3-(6-methyl-3-pyridyl)isoxazol-4-yl]methyl]pyridazin-3-one]
19 | 198% | 2.98 | 4.5 nM | Cc1ccc(-c2noc(C)c2Cn2ncc(N3CC(Oc4ccncc4)C3)cc2=O)cn1 [Example 129, 2-[[5-methyl-3-(6-methyl-3-pyridyl)isoxazol-4-yl]methyl]-5-[3-(4-pyridyloxy)azetidin-1-yl]pyridazin-3-one]
20 | 68% | 1.68 | 3.3 nM | Cc1onc(-c2ccc(Cl)cn2)c1Cn1ncc(N2CC(OCC3CC3)C2)cc1=O [Example 143, 2-((3-(5-Chloropyridin-2-yl)-5-methylisoxazol-4-yl)methyl)-5-(3-(cyclopropylmethoxy)azetidin-1-yl)pyridazin-3(2H)-one]
